The values below come from ChEMBL document CHEMBL1201862, “PubChem BioAssay data set” (2004).

Test systems include LXFL 529; DMS-114; KM-20L2; DLD-1; HOP-18; RXF 631; DMS-273; SNB-78; XF498.
Holding throughout (test): DTP human tumour cell line panel, 48 h

Structures are written as SMILES.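 Tested at 5 concentrations; 48 h exposure; 96-well plates; endpoints linearly interpolated, else capped at highest concentration. GI50: concentration for 50% inhibition of growth.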 Active and inactive are the calls of the source. Rule as the data show it: active = GI50 up to about 1.1 µM and inactive = higher.

Regarding `CCCCNCC(=O)O[C@]1(CC)C(=O)OCc2c1cc1n(c2=O)Cc2cc3ccccc3nc2-1`, the GI50 (commonly the concentration giving 50% growth inhibition) in the assay with LXFL 529 was 3.21 µM (inactive); with DMS-114, 0.121 µM (active); in the assay on KM-20L2, 1.24 µM (inactive); in the assay on DLD-1, 3.3 µM (inactive); in the assay with HOP-18, 0.44 µM (active); with RXF 631 it was 1.7 µM (inactive). For the same compound, the results for the GI50 in the assay with DMS-273, in the assay with SNB-78 and in the assay on XF498 were < 0.01 µM (active), 2.43 µM (inactive) and 0.305 µM (active), respectively.
In the case of `CC(=O)O[C@H]1[C@@H]2[C@@H]3[C@@H](C[C@H]1C)[C@@H](C)CO[C@@]1(C)CC/C=C(/C)C[C@@H]2O[C@@H]31`, the GI50 with LXFL 529, in the assay with DMS-114, in the assay with KM-20L2, in the assay with DLD-1, in the assay on HOP-18 and in the assay on RXF 631 was > 100 µM (inactive) throughout. Moreover, the GI50 in the assay with DMS-273 and with XF498 was > 100 µM (inactive) throughout.
